Like-named read-outs stand apart in the source and are kept apart here.
What was measured:
ICR mice [1] = experiment: Influence of GFNC on therapeutic effects of CTX on tumors and toxic experiment
Description: Blank control group: The injected drugs in the experimental groups were replaced with equal volumes of normal saline.
Metallofullerene derivative (GFNC) experimental group: Mice were injected intravenously with a GFNC solution at a dosage of 0.04 mmol of Gd^3+/kg of body weight of mice.
CTX+GFNC experimental group: Mice were injected intraperitoneally with a CTX solution at a dosage of 60 mg/kg of body weight of mice, and GFNC solution was injected intravenously at a dosage of 0.04 mmol of Gd^3+/kg of body weight of mice.
Injection of drugs was initiated on the 7th day after tumor inoculation, which was marked as the first day of the experiment. Intraperitoneal injection of CTX or intravenous injection of GFNC was conducted once a day for 5 consecutive days, and weights of mice and tumor diameters were measured every two days; thereafter, on the 17th day, mice were fetched and their eye balls were removed, and blood was taken respectively from their orbits; then, the blood was placed in a 5 ml centrifuge tube where it was centrifuged for 15 minutes at a rotational speed of 3,500 rpm; after that, a resultant serum was transferred into a 200 μL centrifuge tube, and blood biochemical indexes (e.g., ALT, ALP, AST, BUN, LDH and UA) of the mice were detected in a blood biochemical instrument; after mice were sacrificed by cervical dislocation, their main tissues and organs (hearts, livers, spleens, lungs and kidneys) were taken and weighed, and were then soaked in a 4% formalin solution; thereafter, histopathological section was conducted, and then, H&E staining was conducted. The blank control group, the cyclophosphamide (CTX) experimental group and the metallofullerene experimental group (GFNC) were processed in the same way for comparison.

ICR mice [2] = conditions: first course
Description: (§1) Animal models: ICR mice aged 4-5 weeks were selected and assigned randomly into 5 groups with 6 mice per group.
(§2) Blank control group: The CTX solution injected in the experimental group was replaced with equal volumes of normal saline, and normal saline of the volume equal to 100 μL was administered intragastrically or intraperitoneally to replace Olive-C60 or olive oil.
After ICR mice aged 4-5 weeks were bred in a laboratory, CTX solutions were injected on the seventh day when their conditions were stable, which was marked as the first day of the experiment. Intraperitoneal injection of CTX was conducted once a day for 5 consecutive days; meanwhile, Olive-C60 or Olive or the normal saline was administered intragastrically or intraperitoneally. 5 days later, no injection was made, and only observation or sampling was conducted.
Effects of Olive-C60 on myelosuppression in the first course on an intravital level: blood (13 μl) was taken from orbits of mice on the 4th day, the 7th day, the 10th day and the 17th day respectively, and was placed in a 3 ml centrifuge tube, and the blood routine examination was conducted using a blood cell automatic analyzer, wherein the main indexes related to myelosuppression are white blood cell counts (WBC), platelet counts (PLT), red blood cell counts (RBC) and hemoglobin determination (HGB). Meanwhile, changes in the weight of mice were monitored.

ICR mice [3] = experiment: Effects of Olive-C60 on relevant enzyme activities in the second course (serum); type: in vivo; conditions: 18th day, Olive-C60 intragastrically with CTX, or CTX alone, versus blank control group
Description: as §1
(§3) The second course started 20 days after the day when the first course was initiated and mice were basically recovered. In other words, the 21st day of the first course was marked as the first day of the second course. Thereafter, intraperitoneal injection of CTX was conducted once a day for 5 consecutive days; and Olive-C60 or olive was administered intragastrically or intraperitoneally. 5 days later, no drug was given; and only observation or sampling was conducted.
Effects of Olive-C60 on relevant enzyme activities in the second course on an intravital level: On the 18th day of the second course of the experiment, whole blood was taken from orbits, serums were obtained by centrifugation, and different relevant enzyme activities were tested.

ICR mice [4] = conditions: second course
Description: as §1
100 μL of normal saline was administered intragastrically so as to eliminate the difference influenced by intragastric stimulation on mice.
as §2, §3
Effects of Olive-C60 on myelosuppression in the second course on an intravital level: blood (13 μl) was taken from orbits of mice on the 4th day, the 7th day, the 10th day and the 17th day of the second course respectively, and was placed in a 3 ml centrifuge tube, and the blood routine examination was conducted using a blood cell automatic analyzer, wherein the main indexes related to myelosuppression are white blood cell counts (WBC), platelet counts (PLT), red blood cell counts (RBC) and hemoglobin determination (HGB). Meanwhile, changes in the weight of mice were monitored.

ICR mice [5] = experiment: Effects of Olive-C60 on blood biochemical indexes in the second course (serum); type: in vivo; conditions: 18th day, versus blank control group
Description: as §1, §3
Effects of Olive-C60 on blood biochemical indexes in the second course on an intravital level: On the 18th day of the second course of the experiment, whole blood was taken from orbits, serums were obtained by centrifugation, and blood biochemical indexes were tested.

ICR mice [6] = experiment: Protection on myelosuppression caused by CTX in H22 tumor mice (blood routine examination); type: in vivo
Description: Blank control group: The drugs injected either intragastrically or intraperitoneally in the experimental groups were replaced with equal volumes of normal saline.
GFNC experimental group: Mice were injected with a GFNC aqueous solution (1 mM) via caudal veins at a dosage of 0.004 mmol of GFNC/kg of body weight of mice.
CTX+GFNC experimental group: Mice were injected intraperitoneally with a CTX solution at a dosage of 60 mg/kg of body weight of mice, and GFNC solution was injected intravenously at a dosage of 0.004 mmol of GFNC/kg of body weight of mice.
Injection of drugs was initiated on the 7th day after tumor inoculation, which was marked as the first day of the experiment. Intraperitoneal injection of CTX or intravenous injection of GFNC was conducted once a day for 5 consecutive days; thereafter, blood (20 μl) was taken respectively from orbits of mice on the 4th day, the 7th day, the 10th day, the 14th day and the 17th day, and was placed in a 3 ml centrifuge tube, and the blood routine examination was conducted using a blood cell automatic analyzer, wherein the main indexes related to myelosuppression are white blood cell counts (WBC), platelet counts (PLT), hemoglobin determination (HGB) and monocyte proportion (MO %).
Animal model: ICR mice aged 4-5 weeks were selected and assigned randomly into 4 groups with 6 mice per group. […]

[7] = 17th day, CTX alone or CTX+GFNC
[8] = CTX 60 mg/kg i.p. x5 days alone

SMILES: O=P1(N(CCCl)CCCl)NCCCO1 (stereo not shown) [CTX, cyclophosphamide]
- histopathological sections of main tissues and organs (H&E staining) (ICR mice [1]; [7]): damaged to a certain extent
- pathological sections of tumor sites: cells of tumor tissues (ICR mice [1]; [7]): die in great quantity
- weight of mice (ICR mice [1]; CTX 60 mg/kg i.p. x5 days alone or with GFNC 0.04 mmol of Gd3+/kg intravenously): drops obviously in the initial stage of drug injection
- white blood cells, red blood cells, platelets and hemoglobin compared with the blank control group (ICR mice [2]; [8]): varying degrees of reduction
- weight of mice (ICR mice [2]; CTX 60 mg/kg i.p. x5 days, alone or with Olive-C60 100 μL (1,500 ppm), after termination of CTX injection / later stage): lower than that of the mice in any other groups
- level of MDA (ICR mice [3]): higher than that of mice in the blank control group
- white blood cells on the 17th day (ICR mice [4]; 17th day, CTX alone or with Olive-C60): still below their normal levels
- white blood cells, red blood cells, platelets and hemoglobin compared with the blank control group (ICR mice [4]; [8]): varying degrees of reduction
- weight of mice (ICR mice [4]; CTX alone or with Olive-C60): differs greatly from that of the mice in other groups
- weight of mice (ICR mice [4]; CTX alone or with Olive-C60, listed as cyclophosphamide): lower than that of the mice in any other groups
- level of uric acid in the serum (ICR mice [5]): far lower than that in the serum of mice in the blank control group
- monocytes (ICR mice [6]; CTX 60 mg/kg i.p. x5 days alone or with 0.004 mmol/kg material intravenously x5 days): abnormal hyperplasia
- white blood cells, platelets and hemoglobin (ICR mice [6]; H22 tumor mice, CTX 60 mg/kg i.p. x5 days alone (versus blank control) or with 0.004 mmol/kg material intravenously x5 days (versus CTX group)): varying degrees of reduction

Source: patent publication US20190038667A1, “APPLICATION OF FULLERENE/METAL-FULLERENE FOR PREPARING PHARMACEUTICAL PRODUCT” (BEIJING FU NA KANG BIOTECHNOLOGY CO., LTD., priority 2016, published 2019)
